Test results as given in ChEMBL document CHEMBL1201862, “PubChem BioAssay data set” (2004).
Active and inactive are the calls of the source.

Legend:
[1] = biological target: T1, Histone-lysine N-methyltransferase NSD2 (Homo sapiens, UniProt O96028); assay type: biochemical
T1 sequence (O96028 whole entry): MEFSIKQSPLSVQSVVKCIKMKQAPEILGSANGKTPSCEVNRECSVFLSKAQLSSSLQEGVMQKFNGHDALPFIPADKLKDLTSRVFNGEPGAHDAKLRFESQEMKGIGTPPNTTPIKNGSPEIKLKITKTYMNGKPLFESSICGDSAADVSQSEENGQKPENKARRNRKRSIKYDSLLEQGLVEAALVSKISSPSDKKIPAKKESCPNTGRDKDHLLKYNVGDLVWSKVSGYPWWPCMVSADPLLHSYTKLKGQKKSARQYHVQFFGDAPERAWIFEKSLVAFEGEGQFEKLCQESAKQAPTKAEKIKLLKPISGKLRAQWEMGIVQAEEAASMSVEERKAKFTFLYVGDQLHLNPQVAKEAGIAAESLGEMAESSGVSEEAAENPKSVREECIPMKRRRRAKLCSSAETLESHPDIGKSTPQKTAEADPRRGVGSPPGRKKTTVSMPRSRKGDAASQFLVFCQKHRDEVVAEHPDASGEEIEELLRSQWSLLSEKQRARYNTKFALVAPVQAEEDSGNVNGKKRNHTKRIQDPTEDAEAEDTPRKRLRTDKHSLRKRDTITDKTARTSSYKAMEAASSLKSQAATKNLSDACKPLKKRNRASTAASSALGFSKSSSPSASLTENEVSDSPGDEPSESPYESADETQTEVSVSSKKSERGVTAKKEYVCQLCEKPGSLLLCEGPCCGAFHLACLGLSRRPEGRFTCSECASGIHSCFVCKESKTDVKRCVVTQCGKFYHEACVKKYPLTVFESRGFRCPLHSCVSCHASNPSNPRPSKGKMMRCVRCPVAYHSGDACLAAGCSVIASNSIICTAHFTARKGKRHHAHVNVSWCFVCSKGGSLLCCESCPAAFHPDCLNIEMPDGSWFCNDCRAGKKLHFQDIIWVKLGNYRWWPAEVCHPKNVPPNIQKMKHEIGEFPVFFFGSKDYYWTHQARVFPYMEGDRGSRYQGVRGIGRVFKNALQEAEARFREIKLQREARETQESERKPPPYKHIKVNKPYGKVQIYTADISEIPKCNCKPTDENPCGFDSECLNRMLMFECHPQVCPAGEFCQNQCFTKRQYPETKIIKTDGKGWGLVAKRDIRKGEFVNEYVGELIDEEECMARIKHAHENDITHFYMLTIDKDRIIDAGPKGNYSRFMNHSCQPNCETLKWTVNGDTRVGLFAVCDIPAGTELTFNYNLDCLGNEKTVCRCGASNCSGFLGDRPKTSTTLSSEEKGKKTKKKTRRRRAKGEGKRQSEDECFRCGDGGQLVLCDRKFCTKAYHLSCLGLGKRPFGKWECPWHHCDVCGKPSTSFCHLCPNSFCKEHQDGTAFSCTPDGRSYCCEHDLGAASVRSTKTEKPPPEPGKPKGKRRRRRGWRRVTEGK

[2] = biological target: T2, Replicative DNA helicase DnaB (Mycobacterium tuberculosis, UniProt P9WMR3); experiment: DnaB intein splicing inhibitors, dose response, biochemical, cell-free fluorescence (AID 449749); assay type: functional
T2 sequence (P9WMR3 whole entry): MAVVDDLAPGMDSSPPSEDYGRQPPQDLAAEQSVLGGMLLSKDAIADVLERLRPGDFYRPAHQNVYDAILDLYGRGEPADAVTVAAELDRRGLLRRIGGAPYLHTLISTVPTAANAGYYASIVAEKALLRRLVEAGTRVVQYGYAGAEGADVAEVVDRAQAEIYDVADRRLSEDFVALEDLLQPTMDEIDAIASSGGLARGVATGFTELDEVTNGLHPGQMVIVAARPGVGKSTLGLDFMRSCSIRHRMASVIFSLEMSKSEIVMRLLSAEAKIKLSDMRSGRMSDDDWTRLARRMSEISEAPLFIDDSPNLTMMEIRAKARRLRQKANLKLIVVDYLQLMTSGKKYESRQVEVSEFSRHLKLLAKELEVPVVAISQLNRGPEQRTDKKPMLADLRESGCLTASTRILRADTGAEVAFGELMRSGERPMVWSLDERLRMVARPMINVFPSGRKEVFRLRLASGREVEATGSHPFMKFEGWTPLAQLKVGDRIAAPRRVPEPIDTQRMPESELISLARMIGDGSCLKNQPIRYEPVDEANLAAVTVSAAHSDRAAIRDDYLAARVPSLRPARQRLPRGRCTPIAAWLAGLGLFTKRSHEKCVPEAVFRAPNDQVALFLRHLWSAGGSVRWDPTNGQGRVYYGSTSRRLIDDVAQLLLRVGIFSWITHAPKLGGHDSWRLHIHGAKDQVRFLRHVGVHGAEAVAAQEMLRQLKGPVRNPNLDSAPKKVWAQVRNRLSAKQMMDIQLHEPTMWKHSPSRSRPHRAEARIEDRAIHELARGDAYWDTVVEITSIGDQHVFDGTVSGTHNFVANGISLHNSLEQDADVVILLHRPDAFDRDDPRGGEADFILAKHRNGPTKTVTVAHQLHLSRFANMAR

[3] = biological target: ATP-dependent molecular chaperone HSP82 (Candida albicans (strain WO-1) (Yeast), UniProt C4YTQ8); experiment: loss of DOC-induced GRE-beta-galactosidase reporter signal, dose response, Hsp90 inhibitor project, S. cerevisiae, luminescence (AID 2400); assay type: functional, cell-based;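 note: beta-galactosidase luminescence from glucocorticoid response element reporter as proxy for Hsp90 function; inhibitor potency where signal loss means Hsp90 inhibition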
Chain of ATP-dependent molecular chaperone HSP82 (C4YTQ8 whole entry): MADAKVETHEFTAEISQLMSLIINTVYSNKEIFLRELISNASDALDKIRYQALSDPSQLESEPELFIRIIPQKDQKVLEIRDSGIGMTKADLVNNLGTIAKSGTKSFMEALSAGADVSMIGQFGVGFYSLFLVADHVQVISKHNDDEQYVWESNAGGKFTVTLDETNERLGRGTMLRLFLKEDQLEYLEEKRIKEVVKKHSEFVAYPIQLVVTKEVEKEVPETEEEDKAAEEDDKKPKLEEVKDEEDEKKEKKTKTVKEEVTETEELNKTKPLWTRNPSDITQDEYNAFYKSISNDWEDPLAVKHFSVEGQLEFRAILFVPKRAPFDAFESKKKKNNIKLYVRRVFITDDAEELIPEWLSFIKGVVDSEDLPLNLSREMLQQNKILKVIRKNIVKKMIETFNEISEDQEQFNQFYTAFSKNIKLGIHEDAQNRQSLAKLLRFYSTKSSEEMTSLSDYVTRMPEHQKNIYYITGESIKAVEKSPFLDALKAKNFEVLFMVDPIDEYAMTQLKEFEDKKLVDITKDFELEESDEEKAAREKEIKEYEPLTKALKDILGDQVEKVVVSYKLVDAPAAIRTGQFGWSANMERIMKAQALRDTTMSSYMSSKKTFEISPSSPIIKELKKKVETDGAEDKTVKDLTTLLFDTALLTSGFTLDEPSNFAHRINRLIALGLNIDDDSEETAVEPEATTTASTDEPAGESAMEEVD

[4] = NIH-3T3 fibroblast cytotoxicity, dose response, cytotoxicity control, cell-based, fluorescence, Alamar Blue, secondary assay (AID 2327); assay type: functional;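 note: NIH-3T3 mouse fibroblasts cultured with fluconazole at 8 µg/mL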
[5] = HepG2 cell cytotoxicity, dose response, cytotoxicity control for Shn3 inhibitor project, CellTiter-Glo, cherry-picked (AID 624134); assay type: functional, cell-based
[6] = C. albicans growth with fluconazole, confirmation, fluorescence, retest (AID 2467); assay type: functional, cell-based
[7] = biological target: Cyclin-dependent kinase 8 (Homo sapiens, UniProt P49336); experiment: Navigating the Kinome. Panel member name: CDK8; assay type: functional
Chain of Cyclin-dependent kinase 8 (P49336 whole entry): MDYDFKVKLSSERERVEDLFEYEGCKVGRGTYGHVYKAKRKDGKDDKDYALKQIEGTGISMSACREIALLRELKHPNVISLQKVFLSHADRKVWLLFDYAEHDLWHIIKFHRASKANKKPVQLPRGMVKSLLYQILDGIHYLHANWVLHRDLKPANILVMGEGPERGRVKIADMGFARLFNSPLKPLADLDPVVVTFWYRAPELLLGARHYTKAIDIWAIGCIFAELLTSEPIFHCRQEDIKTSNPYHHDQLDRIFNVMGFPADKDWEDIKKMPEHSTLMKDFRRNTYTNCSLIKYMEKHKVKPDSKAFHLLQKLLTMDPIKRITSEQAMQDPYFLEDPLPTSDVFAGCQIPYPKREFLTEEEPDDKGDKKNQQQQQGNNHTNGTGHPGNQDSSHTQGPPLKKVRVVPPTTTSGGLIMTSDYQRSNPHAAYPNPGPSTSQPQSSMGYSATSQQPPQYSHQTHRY

[8] = biological target: Protein kinase C theta type (Homo sapiens, UniProt Q04759); experiment: Navigating the Kinome. Panel member name: PRKCQ; assay type: functional
Chain of Protein kinase C theta type (Q04759 whole entry): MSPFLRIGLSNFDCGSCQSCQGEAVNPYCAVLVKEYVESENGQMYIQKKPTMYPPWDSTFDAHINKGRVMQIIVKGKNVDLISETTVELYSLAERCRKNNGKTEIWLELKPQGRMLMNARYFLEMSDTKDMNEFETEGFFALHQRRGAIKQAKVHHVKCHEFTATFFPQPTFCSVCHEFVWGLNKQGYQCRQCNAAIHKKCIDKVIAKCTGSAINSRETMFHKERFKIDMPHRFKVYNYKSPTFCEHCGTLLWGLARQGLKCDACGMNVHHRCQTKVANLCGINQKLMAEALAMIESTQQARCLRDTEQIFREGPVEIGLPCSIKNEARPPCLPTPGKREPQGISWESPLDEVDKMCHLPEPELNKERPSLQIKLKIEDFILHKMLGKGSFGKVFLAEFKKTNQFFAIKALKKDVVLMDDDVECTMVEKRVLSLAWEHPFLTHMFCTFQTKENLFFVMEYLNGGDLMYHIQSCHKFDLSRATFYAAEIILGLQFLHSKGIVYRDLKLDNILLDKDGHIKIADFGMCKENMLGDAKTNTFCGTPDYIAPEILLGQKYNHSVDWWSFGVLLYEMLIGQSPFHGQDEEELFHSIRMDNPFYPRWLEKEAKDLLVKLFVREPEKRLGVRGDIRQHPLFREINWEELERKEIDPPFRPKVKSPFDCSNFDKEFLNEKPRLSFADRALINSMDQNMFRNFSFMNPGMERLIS

[9] = biological target: Cyclin-dependent kinase 5 (Homo sapiens, UniProt Q00535); assay type: functional;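 note: CDK5 measured as one member of a kinase profiling panel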
Chain of Cyclin-dependent kinase 5 (Q00535 whole entry): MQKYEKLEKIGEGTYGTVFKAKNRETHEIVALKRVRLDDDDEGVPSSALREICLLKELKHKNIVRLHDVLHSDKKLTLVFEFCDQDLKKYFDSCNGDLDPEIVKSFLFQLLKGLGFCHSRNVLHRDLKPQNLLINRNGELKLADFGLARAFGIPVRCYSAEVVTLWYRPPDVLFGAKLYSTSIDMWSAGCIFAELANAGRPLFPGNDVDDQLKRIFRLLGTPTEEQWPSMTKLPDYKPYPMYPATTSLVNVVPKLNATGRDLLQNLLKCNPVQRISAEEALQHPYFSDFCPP

[10] = biological target: Tyrosine-protein kinase Lck (Homo sapiens, UniProt P06239); assay type: functional;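 note: lck was assayed as one member of a kinase panel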
[11] = biological target: Tyrosine-protein kinase JAK3 (Homo sapiens, UniProt P52333); assay type: functional
Chain of Tyrosine-protein kinase JAK3 (P52333 whole entry): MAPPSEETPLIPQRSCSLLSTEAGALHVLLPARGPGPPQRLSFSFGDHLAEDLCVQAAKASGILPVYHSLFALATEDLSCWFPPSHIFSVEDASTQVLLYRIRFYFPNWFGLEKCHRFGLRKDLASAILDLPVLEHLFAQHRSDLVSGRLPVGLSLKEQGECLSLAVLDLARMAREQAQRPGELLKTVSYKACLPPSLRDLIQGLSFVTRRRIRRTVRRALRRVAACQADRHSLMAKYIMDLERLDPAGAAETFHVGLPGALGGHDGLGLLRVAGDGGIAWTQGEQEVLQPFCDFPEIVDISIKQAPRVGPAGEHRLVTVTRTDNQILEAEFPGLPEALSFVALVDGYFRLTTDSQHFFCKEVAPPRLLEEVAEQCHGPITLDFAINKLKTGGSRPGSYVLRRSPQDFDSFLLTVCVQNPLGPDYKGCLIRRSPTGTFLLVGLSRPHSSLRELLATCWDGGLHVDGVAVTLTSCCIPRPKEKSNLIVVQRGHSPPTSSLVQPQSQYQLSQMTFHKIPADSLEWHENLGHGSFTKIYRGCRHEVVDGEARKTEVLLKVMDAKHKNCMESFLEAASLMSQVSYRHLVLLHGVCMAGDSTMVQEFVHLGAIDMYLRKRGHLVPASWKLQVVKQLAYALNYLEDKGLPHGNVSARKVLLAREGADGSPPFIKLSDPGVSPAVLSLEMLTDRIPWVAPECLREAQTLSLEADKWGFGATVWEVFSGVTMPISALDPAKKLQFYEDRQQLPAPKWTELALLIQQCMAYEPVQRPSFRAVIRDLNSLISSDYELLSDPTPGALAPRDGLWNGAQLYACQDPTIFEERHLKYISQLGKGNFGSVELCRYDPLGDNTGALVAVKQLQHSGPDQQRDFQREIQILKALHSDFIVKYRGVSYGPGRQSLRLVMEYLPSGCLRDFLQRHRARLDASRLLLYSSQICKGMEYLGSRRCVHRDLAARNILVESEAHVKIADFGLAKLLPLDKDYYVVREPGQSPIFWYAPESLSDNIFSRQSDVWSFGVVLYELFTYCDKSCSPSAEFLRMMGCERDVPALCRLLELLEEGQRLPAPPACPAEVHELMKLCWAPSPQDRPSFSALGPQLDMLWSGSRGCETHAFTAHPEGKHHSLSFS

[12] = biological target: Dual specificity tyrosine-phosphorylation-regulated kinase 1A (Homo sapiens, UniProt Q13627); assay type: functional;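 note: measured against DYRK1A as one member of a broad kinome profiling panel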
[13] = biological target: Ribosomal protein S6 kinase alpha-3 (Homo sapiens, UniProt P51812); assay type: functional;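 note: measured within a kinome-wide profiling panel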
Chain of Ribosomal protein S6 kinase alpha-3 (P51812 whole entry): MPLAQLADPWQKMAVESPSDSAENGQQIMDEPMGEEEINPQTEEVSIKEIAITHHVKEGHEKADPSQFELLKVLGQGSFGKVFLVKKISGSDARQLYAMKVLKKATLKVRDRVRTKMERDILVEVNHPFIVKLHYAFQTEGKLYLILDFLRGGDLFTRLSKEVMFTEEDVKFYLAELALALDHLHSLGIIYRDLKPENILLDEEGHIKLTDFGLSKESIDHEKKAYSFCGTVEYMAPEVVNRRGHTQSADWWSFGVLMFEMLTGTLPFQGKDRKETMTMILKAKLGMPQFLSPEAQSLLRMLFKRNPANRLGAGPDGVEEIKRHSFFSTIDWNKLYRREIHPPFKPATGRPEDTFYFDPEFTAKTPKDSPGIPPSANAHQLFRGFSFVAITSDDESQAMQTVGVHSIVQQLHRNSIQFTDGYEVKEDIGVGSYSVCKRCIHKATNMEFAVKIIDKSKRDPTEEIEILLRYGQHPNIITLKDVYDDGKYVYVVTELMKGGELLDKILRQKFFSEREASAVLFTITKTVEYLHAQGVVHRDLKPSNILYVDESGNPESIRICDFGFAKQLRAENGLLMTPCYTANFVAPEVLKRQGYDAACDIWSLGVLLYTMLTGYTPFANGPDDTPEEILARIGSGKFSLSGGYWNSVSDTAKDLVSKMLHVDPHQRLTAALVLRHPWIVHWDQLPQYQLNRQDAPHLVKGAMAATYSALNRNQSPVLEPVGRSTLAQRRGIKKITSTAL

[14] = biological target: Dual specificity tyrosine-phosphorylation-regulated kinase 1B (Homo sapiens, UniProt Q9Y463); experiment: Navigating the Kinome. Panel member name: DYRK1B; assay type: functional
Chain of Dual specificity tyrosine-phosphorylation-regulated kinase 1B (Q9Y463 whole entry): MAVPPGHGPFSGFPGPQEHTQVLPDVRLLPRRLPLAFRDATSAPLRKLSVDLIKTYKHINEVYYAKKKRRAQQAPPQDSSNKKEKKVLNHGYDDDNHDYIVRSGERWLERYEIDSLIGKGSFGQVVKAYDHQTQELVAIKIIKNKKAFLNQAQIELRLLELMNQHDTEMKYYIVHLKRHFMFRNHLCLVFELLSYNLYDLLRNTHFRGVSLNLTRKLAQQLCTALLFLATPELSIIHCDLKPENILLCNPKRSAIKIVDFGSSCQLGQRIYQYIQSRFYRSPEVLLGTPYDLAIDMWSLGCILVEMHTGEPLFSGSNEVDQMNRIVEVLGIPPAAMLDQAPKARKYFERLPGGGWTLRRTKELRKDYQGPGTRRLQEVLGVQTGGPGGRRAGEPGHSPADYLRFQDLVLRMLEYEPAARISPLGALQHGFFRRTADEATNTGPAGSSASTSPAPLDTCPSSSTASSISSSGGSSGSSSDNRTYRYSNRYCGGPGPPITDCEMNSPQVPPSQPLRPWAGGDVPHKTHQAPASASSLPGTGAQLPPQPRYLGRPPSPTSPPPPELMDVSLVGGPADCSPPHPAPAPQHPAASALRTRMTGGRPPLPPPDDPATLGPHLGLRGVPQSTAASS

[15] = biological target: Mitogen-activated protein kinase kinase kinase kinase 4 (Homo sapiens, UniProt O95819); assay type: functional

For O=C(NC1=C(NC2CCS(=O)(=O)C2)C(=O)c2ccccc2C1=O)c1ccccc1 (stereo not given), which AC50 [1] is on record?
Its AC50 is > 20 µM (inactive).

What about the AC50 [2] of the same compound?
The AC50 was 0.816 µM (active).

What does the source list for CCCC(=O)NC(c1ccc(N(C)C)cc1)c1ccc2cccnc2c1O (stereo not given)?
EC50 [3]: > 160 µM (inactive); EC50 [4]: 22.9 µM (inconclusive); AC50 [5]: 2.09 µM (active); EC50 [6]: 0.626 µM (active)

For O=C1NC(=O)C(c2c[nH]c3ccccc23)=C1c1nc(N2CCNCC2)nc2ccccc12, which Ki [7] is on record?
Its Ki is > 3.98 µM (inactive).

And the Ki [8]?
The Ki was 0.000316 µM (active).

What about the Ki [9] of the same compound?
Its Ki is 0.794 µM (active).

And the Ki [10]?
The Ki was > 6.31 µM (inactive).

What about the Ki [11] of the same compound?
Its Ki is 1.26 µM (active).

And the Ki [12]?
The Ki was > 2 µM (inactive).

And the Ki [13]?
The Ki was 0.0501 µM (active).

And the Ki [14]?
Its Ki is > 2 µM (inactive).

And the Ki [15]?
Its Ki is 0.2 µM (active).
